We go through 13 compounds from PubChem BioAssay (NCI).

Test systems include SW-620 colon; EKVX NSCLC; KM12 colon; A549 NSCLC; HCC-2998 colon; HCT-116 colon; NCI/ADR-RES ovarian; COLO 205 colon; NCI-H226 lung; SNB-75 CNS.
What all share (assay): NCI anticancer screen, dose series, 48 h

Structures are written as SMILES.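 Protocol summary: plate cells (96-well), add compound at 5 concentrations, incubate 48 h, interpolate endpoints linearly. GI50 is the concentration that inhibits growth by half. TGI denotes the concentration required for complete inhibition of growth.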

For the compound `Cn1ccnc1Sc1ccc(/C=N/NC(=O)c2ccccc2O)cc1[N+](=O)[O-]`, the TGI with SW-620 colon, in the assay on EKVX NSCLC, in the assay on KM12 colon, in the assay on A549 NSCLC, in the assay on HCC-2998 colon and in the assay with HCT-116 colon was greater than 100 µM throughout. Besides, the TGI was greater than 100 µM in the assay with NCI/ADR-RES ovarian, 56.8 µM in the assay with COLO 205 colon, greater than 100 µM in the assay with NCI-H226 lung and greater than 100 µM with SNB-75 CNS.

Regarding `Cn1ccnc1S/C(=C\C=C(C#N)C#N)c1ccc(Cl)cc1`, the TGI with SW-620 colon is 11.9 µM; in the assay on EKVX NSCLC it was 13.1 µM; in the assay on KM12 colon it was 6.22 µM; with A549 NSCLC, 22.6 µM; in the assay on HCC-2998 colon, 9.54 µM; with HCT-116 colon, 1.58 µM. For the same compound, the TGI in the assay with NCI/ADR-RES ovarian is 7.85 µM; in the assay on COLO 205 colon, greater than 35.6 µM; in the assay on NCI-H226 lung, greater than 22.8 µM; in the assay with SNB-75 CNS, 12.5 µM. Also, the GI50 with NCI-H226 lung is 3.97 µM.

Regarding `CC(=O)NCCCCNCCCNC(C)=O`, the TGI in the assay on SW-620 colon, with EKVX NSCLC, in the assay on KM12 colon, in the assay on A549 NSCLC, with HCC-2998 colon and in the assay with HCT-116 colon was greater than 100 µM in each case. Besides, the TGI in the assay with NCI/ADR-RES ovarian, in the assay on COLO 205 colon, with NCI-H226 lung and in the assay with SNB-75 CNS was greater than 100 µM in each case.

Take `Cc1ccc(S(=O)(=O)N/C(=C\C=C\c2ccccc2)C(=O)C(C)(C)C)cc1`: the TGI with SW-620 colon, with EKVX NSCLC, in the assay on KM12 colon, with A549 NSCLC, in the assay with HCC-2998 colon and in the assay on HCT-116 colon was greater than 100 µM in each case. For the same compound, the TGI with NCI/ADR-RES ovarian, with COLO 205 colon, in the assay on NCI-H226 lung and with SNB-75 CNS was greater than 100 µM in each case.

For the compound `C=CCC(C)C12CCNC(Cc3ccc(O)cc31)C2C` (stereo unspecified), the TGI in the assay with SW-620 colon, with EKVX NSCLC, with KM12 colon, in the assay on A549 NSCLC, with HCC-2998 colon and in the assay with HCT-116 colon was greater than 100 µM each time. In addition, the TGI in the assay on NCI/ADR-RES ovarian, with COLO 205 colon, with NCI-H226 lung and with SNB-75 CNS was greater than 100 µM throughout.

With `O=C(Nc1ccccc1F)c1c(O)nc2sccn2c1=O`, the TGI in the assay on SW-620 colon, in the assay on EKVX NSCLC, in the assay on KM12 colon, in the assay on A549 NSCLC, in the assay on HCC-2998 colon and in the assay with HCT-116 colon was greater than 10 µM in each case. Besides, the TGI with NCI/ADR-RES ovarian, in the assay on COLO 205 colon, in the assay with NCI-H226 lung and in the assay with SNB-75 CNS was greater than 10 µM in each case.

Turning to `Cc1ccc(F)cc1NC(=O)O/N=C(\Cl)C(C)C`, the TGI in the assay with SW-620 colon was 3.18 µM; in the assay on EKVX NSCLC, 15.5 µM; with KM12 colon, 34.8 µM; in the assay with A549 NSCLC, 38.2 µM; with HCC-2998 colon it was 34.4 µM; in the assay on HCT-116 colon, 35.3 µM. Also, the TGI in the assay on NCI/ADR-RES ovarian is 27.2 µM; with COLO 205 colon it was 3.74 µM; in the assay with NCI-H226 lung, 28.5 µM; with SNB-75 CNS it was 35.7 µM.

`O=c1[nH]nc(Cc2ccccc2)n1/N=C/c1c[nH]c2ccccc12`: the TGI in the assay on SW-620 colon, with EKVX NSCLC, in the assay on KM12 colon, in the assay on A549 NSCLC, in the assay on HCC-2998 colon and with HCT-116 colon was greater than 100 µM each time. Besides, the TGI in the assay with NCI/ADR-RES ovarian is greater than 100 µM; in the assay on COLO 205 colon it was greater than 100 µM; in the assay with NCI-H226 lung it was greater than 100 µM; in the assay on SNB-75 CNS, 51.3 µM.

As to `CC(C)CCCC(C)[C@H]1CCC2[C@@H]3CCC4Cc5nc6c(nc5C[C@]4(C)C3CC[C@@]21C)CC1CC[C@@H]2C(C[C@@H](O)[C@@]3(C)C2C[C@@H]2OC4(CCC(C)CO4)C(C)[C@@H]23)[C@@]1(C)C6` (stereo partly specified), the TGI with SW-620 colon, in the assay with EKVX NSCLC, with KM12 colon, in the assay on A549 NSCLC, with HCC-2998 colon and with HCT-116 colon was greater than 100 µM in each case. Further, the TGI in the assay on NCI/ADR-RES ovarian, in the assay with COLO 205 colon, in the assay with NCI-H226 lung and in the assay with SNB-75 CNS was greater than 100 µM in each case.

Turning to `C=CC(=O)N1C/C(=C\c2ccc(N(C)C)cc2)C(=O)/C(=C/c2ccc(N(C)C)cc2)C1`, the TGI in the assay with SW-620 colon, in the assay with EKVX NSCLC, in the assay on KM12 colon, in the assay with A549 NSCLC, with HCC-2998 colon and in the assay on HCT-116 colon was greater than 100 µM in each case. The TGI with NCI/ADR-RES ovarian, in the assay on COLO 205 colon, with NCI-H226 lung and in the assay on SNB-75 CNS was greater than 100 µM each time.

In the case of `CC(C)(CO)CNc1cc(=O)[nH]c(N)n1`, the TGI in the assay with SW-620 colon, with EKVX NSCLC, with KM12 colon, with A549 NSCLC, in the assay with HCC-2998 colon and with HCT-116 colon was greater than 100 µM throughout. The TGI in the assay with NCI/ADR-RES ovarian, in the assay on COLO 205 colon, in the assay with NCI-H226 lung and with SNB-75 CNS was greater than 100 µM each time.

As for `CCOC(C[Se]CC(OCC)OCC)OCC`, the TGI in the assay with SW-620 colon, in the assay with EKVX NSCLC, with KM12 colon, in the assay on A549 NSCLC, with HCC-2998 colon and in the assay on HCT-116 colon was greater than 100 µM in each case. In addition, the TGI was greater than 100 µM in the assay with NCI/ADR-RES ovarian, greater than 100 µM with COLO 205 colon, 46.4 µM in the assay with NCI-H226 lung and 38.8 µM with SNB-75 CNS.

With `CC(=O)OC[C@H]1O[C@@H](O[C@H]2[C@H](OC(C)=O)C=CO[C@@H]2COC(C)=O)C(OC(C)=O)[C@H]2OC(C)(C)O[C@H]21` (stereo partly specified), the TGI in the assay on SW-620 colon, in the assay with EKVX NSCLC, in the assay with KM12 colon, in the assay on A549 NSCLC, with HCC-2998 colon and in the assay on HCT-116 colon was greater than 100 µM throughout. Further, the TGI with NCI/ADR-RES ovarian was greater than 100 µM; in the assay with COLO 205 colon, greater than 100 µM; in the assay on NCI-H226 lung, greater than 100 µM; with SNB-75 CNS, 87.3 µM.
